In the NIST ThermoML archive (doi:10.1016/j.fluid.2009.08.017):

Test: activity coefficient (dimensionless); of the first substance listed, at infinite dilution; xn = mol fraction of the nth substance listed
Details: 101 kPa, Liquid, Chromatography, x1 = 0

CCc1ccccc1 [ethylbenzene] + CCCCCCOCn1cc[n+](C)c1.O=S(=O)([N-]S(=O)(=O)C(F)(F)F)C(F)(F)F
Details | activity coefficient
308.15 K | 1.49
318.15 K | 1.49
328.15 K | 1.49
338.15 K | 1.5
348.15 K | 1.5
358.15 K | 1.5
368.15 K | 1.5
